Source: patent publication US20230114107A1, “COMBINATION ANTI-CANCER THERAPIES WITH INDUCERS OF IRON-DEPENDENT CELLULAR DISASSEMBLY” (Flagship Pioneering Innovations V, Inc., priority 2019, published 2023)
Entries after “also recorded” stand apart in the source; their conditions may differ.

What was measured:
[1] = test system: Jurkat T cell leukemia cells; test: Viability of Jurkat T cell leukemia cells after treatment; assay type: cell-based; conditions: various doses, 24 hours; FIG. 5A
[2] = test system: NFKB reporter in THP1-Dual cells; test: NFKB reporter activity in THP1-Dual monocytes co-cultured with treated A20 cells; assay type: cell-based, human
Experimental: (§1) A20 B-cell leukemia cells were treated with either control (DMSO) or various doses of RSL3, for 24 hours prior to co-culture with THP1-Dual cells for an additional 24 hours. RSL3 was purchased from Selleckchem (Houston, Tex.) and dissolved in DMSO. Subsequently, the THP1 supernatants were assessed for NFKB or IRF reporter activity.
(§2) A20 cells were acquired from ATCC and THP1-Dual cells acquired from InvivoGen (San Diego, Calif.). Both cell types were cultured in 96-well plates for the duration of the assay. 50,000 A20 cells were plated 24 hours prior to dosing with RSL3, with a final DMSO concentration of 0.5%. 24 hours post-treatment, THP1-Dual cells (25,000 cells/well) were added to the A20 cells. 24 hours later, 30 μl of supernatant was mixed with either 200 μl QuantiBlue (InvivoGen, San Diego, Calif.) or 50 μl QuantiLuc and absorbance or luminescence was recorded on a Molecular Devices plate reader.
A20 lymphoma cells were treated with various doses (e.g. 0.002, 0.005, 0.014, 0.041, 0.123, 0.370, 1.111, 3.333 and 10 μM) of a GPX4 inhibitor (RSL3, ML162 or ML210) in the presence or absence of 1 μM Ferrostatin-1 for 24 hours. ML162 was purchased from Cayman Chemical Company Inc and resuspended in DMSO. ML210 was purchased from Sigma-Aldrich and resuspended in DMSO. A20 lymphoma cells were also treated with DMSO as a negative control. After treatment with DMSO or a GPX4 inhibitor for 24 hours, the A20 lymphoma cells were co-cultured with THP1-Dual cells for an additional 24 hours. Subsequently, the THP1 supernatant was assessed for NFKB reporter activity. A20 cells were acquired from ATCC and THP1-Dual cells were acquired from InvivoGen (San Diego, Calif.). Both cell types were cultured in 96-well plates for the duration of the assay.

[3] = test system: A20 B-cell leukemia cells; test: Viability of A20 B-cell leukemia / lymphoma cells after treatment; assay type: cell-based; conditions: 24 hours
A375-DR cells = test: CellTiter-Glo 2.0 viability of dabrafenib-resistant melanoma cells; assay type: cell-based, human; conditions: graded concentrations, 72 hours; vs non-resistant parental cell line; FIG. 16A
Experimental: (§3) The effects of the ferroptosis inducer RSL3 on cancer cell lines with acquired resistance to standard of care therapeutics was assessed in vitro. Human melanoma cell lines with acquired resistance to BRAF inhibitors (A375-DR or A375-VR) were generated by propagating parental A375 cells in increasing concentrations of dabrafenib or vemurafenib (10 nM-100 μM) over 8 weeks. These resistant melanoma cell lines were further maintained in growth medium containing 5 μM dabrafenib or vemurafenib. BT-474 Clone 5, a human breast cancer cell line that is resistant to trastuzumab, was purchased from American Type Culture Collection (ATCC). 5,000 A375-DR, A375-VR, or BT-474 clone 5 cells were plated per well in flat-bottom 96 well plates and incubated overnight. Cells were then dosed with graded concentrations of RSL3 for 72 hours, and cellular viability was assessed using the CellTiter-Glo 2.0 Cell Viability Assay. The experiments were run in triplicate.

[4] = test system: Caki-1 renal cell carcinoma cells; test: Viability of Caki-1 renal cell carcinoma cells after treatment; assay type: cell-based; conditions: 24 hours
A375-VR cells = test: CellTiter-Glo 2.0 viability of vemurafenib-resistant melanoma cells; assay type: cell-based, human; conditions: graded concentrations, 72 hours; vs non-resistant parental cell line; FIG. 16B
Experimental: as §3

[5] = test system: IRF reporter in THP1-Dual cells; test: IRF reporter activity in THP1-Dual monocytes co-cultured with treated A20 cells; assay type: cell-based, human; conditions: A20 cells treated 24 hours, co-culture 24 hours; vs DMSO; FIG. 6C
Experimental: A20 B-cell leukemia cells were treated with either control (DMSO) or various doses of RSL3, for 24 hours prior to co-culture with THP1-Dual cells for an additional 24 hours. RSL3 was purchased from Selleckchem (Houston, Tex.) and dissolved in DMSO. Subsequently, the THP1 supernatants were assessed for NFKB or IRF reporter activity. A20 cells were acquired from ATCC and THP1-Dual cells acquired from InvivoGen (San Diego, Calif.). Both cell types were cultured in 96-well plates for the duration of the assay. 50,000 A20 cells were plated 24 hours prior to dosing with RSL3, with a final DMSO concentration of 0.5%. 24 hours post-treatment, THP1-Dual cells (25,000 cells/well) were added to the A20 cells. 24 hours later, 30 μl of supernatant was mixed with either 200 μl QuantiBlue (InvivoGen, San Diego, Calif.) or 50 μl QuantiLuc and absorbance or luminescence was recorded on a Molecular Devices plate reader.

[6] = test system: NFKB reporter in THP1-Dual cells; test: NFKB reporter activity in THP1-Dual monocytes co-cultured with treated Jurkat cells; assay type: cell-based, human; conditions: Jurkat cells treated 24 hours, co-culture 24 hours; vs DMSO; FIG. 5B
Experimental: as §1, with “Jurkat T cell” for “A20 B-cell”
as §2, with “Jurkat” for “A20”, “100,000 Jurkat” for “50,000 A20”

BT-474 Clone 5 cells = test: CellTiter-Glo 2.0 viability of trastuzumab-resistant breast cancer cells; assay type: cell-based, human; conditions: graded concentrations, 72 hours; vs non-resistant parental cell line; FIG. 16C
Experimental: as §3

COC(=O)c1ccc([C@H]2c3[nH]c4ccccc4c3C[C@H](C(=O)OC)N2C(=O)CCl)cc1 [RSL3]
viability of Jurkat T cell leukemia cells [1]: negatively affected the viability | NFKB signaling in THP1 monocytes ([2]; A20 cells treated 24 hours, co-culture 24 hours, vs DMSO, FIG. 6B): elicited | NFKB activity in THP1 cells, dose dependence ([2]; A20 lymphoma cells treated with GPX4 inhibitor, FIG. 10B, 11B, 12B): increased NFKB activity in THP1 cells in a dose dependent manner | viability of A20 lymphoma cells, dose dependence ([3]; GPX4 inhibitor 0.002-10 μM, FIG. 10A, 11A, 12A): decreased viability of the cells in a dose dependent manner | viability of A20 B cell leukemia cells ([3]; various doses, FIG. 6A): negatively affected the viability | sensitivity of A375-DR cells to RSL3-induced ferroptosis (cellular viability) (A375-DR cells): sensitive to RSL3-induced ferroptosis; also recorded: more sensitive to RSL3-induced ferroptosis than the corresponding non-resistant parental cell line | viability of Caki-1 renal carcinoma cells, dose dependence ([4]; GPX4 inhibitor various doses, FIG. 13A, 14A): decreased viability of the cells in a dose dependent manner | viability of Caki-1 cells ([4]; various doses, FIG. 3A, 4A): negatively affected the viability | sensitivity of A375-VR cells to RSL3-induced ferroptosis (cellular viability) (A375-VR cells): sensitive to RSL3-induced ferroptosis; also recorded: more sensitive to RSL3-induced ferroptosis than the corresponding non-resistant parental cell line | IRF signaling in THP1 monocytes [5]: elicited | NFKB signaling in THP1 monocytes [6]: elicited NFKB signaling in THP1 monocytes | sensitivity of BT-474 clone 5 cells to RSL3-induced ferroptosis (cellular viability) (BT-474 Clone 5 cells): sensitive to RSL3-induced ferroptosis; also recorded: more sensitive to RSL3-induced ferroptosis than the corresponding non-resistant parental cell line
